Columns and labels:
[1] = test system: C6; assay: (§1) Antitumour activity against rat C6 cells implanted in Wistar rat assessed as reduction in reactive astrocytes induced areas of blood vessels at 25 mg/kg, ip administered on alternate days in total 3 doses and measured on day 7 co-treated with temozolomide by immunohistochemical analysis relative to control; format: functional; parameters: scale not given: the % may be the effect or the level left
[2] = test system: C6; assay: as §1, with “induced peri-tumoral” for “induced”, “areas” for “areas of blood vessels”; format: functional; parameters: scale not given: the % may be the effect or the level left

Structure (SMILES): CC[C@H](CO)Nc1nc(NCc2ccccc2)c2ncn(C(C)C)c2n1 [SELICICLIB]
- Activity [1]: 100%
- Activity [2]: 100%

Source: ChEMBL document CHEMBL4402522, “Exploring the new horizons of drug repurposing: A vital tool for turning hard work into smart work” (2019)
